Laboratory results published in ChEMBL document CHEMBL1201862, “PubChem BioAssay data set” (2004).
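Grown in 96-well plates, cells were treated for 48 hours with each compound at five concentrations. Insufficient inhibition: endpoint recorded as highest concentration tested. GI50 = concentration required for 50% inhibition of growth.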 Activity calls are given as the source filed them. Cut-off read from the data, not from the text of the source: active = GI50 up to about 1.1 µM and inactive = higher.

Legend:
Experiment in all cases: DTP human tumour cell line panel, 48 h
A498 = system: A498
BT-549 = system: BT-549
COLO 205 = system: COLO 205
DU-145 = system: DU-145
HL-60 = system: HL-60
IGROV-1 = system: IGROV-1
LOX IMVI = system: LOX IMVI
MDA-MB-231 = system: MDA-MB-231
Malme-3M = system: Malme-3M
NCI-H23 = system: NCI-H23
NCI/ADR-RES = system: NCI/ADR-RES
OVCAR-3 = system: OVCAR-3
OVCAR-5 = system: OVCAR-5
PC-3 = system: PC-3
SK-MEL-2 = system: SK-MEL-2
SNB-19 = system: SNB-19
T47D = system: T47D
UACC-257 = system: UACC-257
UACC-62 = system: UACC-62
UO-31 = system: UO-31

C=C1CCOC2(C(O)C(C)(O)CO)NC(=O)C1(O)NC2=O (stereo not given)
GI50 (A498): > 100 µM (inactive) | GI50 (BT-549): > 100 µM (inactive) | GI50 (COLO 205): > 100 µM (inactive) | GI50 (DU-145): > 100 µM (inactive) | GI50 (HL-60): > 100 µM (inactive) | GI50 (IGROV-1): > 100 µM (inactive) | GI50 (LOX IMVI): > 100 µM (inactive) | GI50 (MDA-MB-231): > 100 µM (inactive) | GI50 (Malme-3M): > 100 µM (inactive) | GI50 (NCI-H23): > 100 µM (inactive) | GI50 (NCI/ADR-RES): > 100 µM (inactive) | GI50 (OVCAR-3): > 100 µM (inactive) | GI50 (OVCAR-5): > 100 µM (inactive) | GI50 (PC-3): > 100 µM (inactive) | GI50 (SK-MEL-2): > 100 µM (inactive) | GI50 (SNB-19): > 100 µM (inactive) | GI50 (T47D): > 100 µM (inactive) | GI50 (UACC-257): > 100 µM (inactive) | GI50 (UACC-62): > 100 µM (inactive) | GI50 (UO-31): > 100 µM (inactive)

CC1=C([S+]([O-])c2ccc(C)cc2)CCC2(CCCCO2)O1 (stereo not given)
GI50 (A498): > 100 µM (inactive) | GI50 (BT-549): > 100 µM (inactive) | GI50 (COLO 205): > 100 µM (inactive) | GI50 (DU-145): > 100 µM (inactive) | GI50 (HL-60): 23.3 µM (inactive) | GI50 (IGROV-1): > 100 µM (inactive) | GI50 (LOX IMVI): > 100 µM (inactive) | GI50 (MDA-MB-231): > 100 µM (inactive) | GI50 (Malme-3M): > 100 µM (inactive) | GI50 (NCI-H23): > 100 µM (inactive) | GI50 (NCI/ADR-RES): > 100 µM (inactive) | GI50 (OVCAR-3): > 100 µM (inactive) | GI50 (OVCAR-5): > 100 µM (inactive) | GI50 (PC-3): > 100 µM (inactive) | GI50 (SK-MEL-2): 64.3 µM (inactive) | GI50 (SNB-19): > 100 µM (inactive) | GI50 (T47D): > 100 µM (inactive) | GI50 (UACC-257): > 100 µM (inactive) | GI50 (UACC-62): > 100 µM (inactive) | GI50 (UO-31): > 100 µM (inactive)

CCOc1cc(NC(C)=O)ccc1C(=O)NN1C(=O)CSC1c1ccccc1 (stereo not given)
GI50 (A498): > 100 µM (inactive) | GI50 (BT-549): 34.9 µM (inactive) | GI50 (COLO 205): 75 µM (inactive) | GI50 (DU-145): > 100 µM (inactive) | GI50 (HL-60): 33.5 µM (inactive) | GI50 (IGROV-1): > 100 µM (inactive) | GI50 (LOX IMVI): > 100 µM (inactive) | GI50 (MDA-MB-231): > 100 µM (inactive) | GI50 (Malme-3M): 86.3 µM (inactive) | GI50 (NCI-H23): 66.7 µM (inactive) | GI50 (NCI/ADR-RES): 35.7 µM (inactive) | GI50 (OVCAR-3): 96.6 µM (inactive) | GI50 (OVCAR-5): > 100 µM (inactive) | GI50 (PC-3): 78.7 µM (inactive) | GI50 (SK-MEL-2): > 100 µM (inactive) | GI50 (SNB-19): > 100 µM (inactive) | GI50 (T47D): 25.7 µM (inactive) | GI50 (UACC-257): 63.8 µM (inactive) | GI50 (UACC-62): 52 µM (inactive) | GI50 (UO-31): 40.7 µM (inactive)

COc1ccc(/C=C2\CN(C)CC3C2=NC(=S)NC3c2ccc(OC)cc2)cc1 (stereo not given)
GI50 (A498): 3.27 µM (inactive) | GI50 (BT-549): 7.6 µM (inactive) | GI50 (COLO 205): 3.67 µM (inactive) | GI50 (DU-145): 4.68 µM (inactive) | GI50 (HL-60): 2.19 µM (inactive) | GI50 (IGROV-1): 2.98 µM (inactive) | GI50 (LOX IMVI): 4.76 µM (inactive) | GI50 (MDA-MB-231): 13.3 µM (inactive) | GI50 (Malme-3M): 2.99 µM (inactive) | GI50 (NCI-H23): 7.96 µM (inactive) | GI50 (NCI/ADR-RES): 2.55 µM (inactive) | GI50 (OVCAR-3): 1.98 µM (inactive) | GI50 (OVCAR-5): 19.3 µM (inactive) | GI50 (PC-3): 6.21 µM (inactive) | GI50 (SK-MEL-2): 13.9 µM (inactive) | GI50 (SNB-19): 5.66 µM (inactive) | GI50 (T47D): 4.11 µM (inactive) | GI50 (UACC-257): 4.82 µM (inactive) | GI50 (UACC-62): 4.58 µM (inactive) | GI50 (UO-31): 4.95 µM (inactive)

CC(C)(C)c1ccc2c(c1)C#Cc1cc(C(C)(C)C)ccc1OCCCO2
GI50 (A498): > 100 µM (inactive) | GI50 (BT-549): > 100 µM (inactive) | GI50 (COLO 205): > 100 µM (inactive) | GI50 (DU-145): > 100 µM (inactive) | GI50 (HL-60): > 100 µM (inactive) | GI50 (IGROV-1): > 100 µM (inactive) | GI50 (LOX IMVI): > 100 µM (inactive) | GI50 (MDA-MB-231): > 100 µM (inactive) | GI50 (Malme-3M): > 100 µM (inactive) | GI50 (NCI-H23): > 100 µM (inactive) | GI50 (NCI/ADR-RES): > 100 µM (inactive) | GI50 (OVCAR-3): > 100 µM (inactive) | GI50 (OVCAR-5): > 100 µM (inactive) | GI50 (PC-3): > 100 µM (inactive) | GI50 (SK-MEL-2): > 100 µM (inactive) | GI50 (SNB-19): > 100 µM (inactive) | GI50 (T47D): > 100 µM (inactive) | GI50 (UACC-257): > 100 µM (inactive) | GI50 (UACC-62): > 100 µM (inactive) | GI50 (UO-31): > 100 µM (inactive)

Fc1ccc(/N=C/C=C/Nc2ccc(F)cc2)cc1
GI50 (A498): 15.5 µM (inactive) | GI50 (BT-549): 14.1 µM (inactive) | GI50 (COLO 205): 1.55 µM (inactive) | GI50 (DU-145): 13.5 µM (inactive) | GI50 (HL-60): 2.26 µM (inactive) | GI50 (IGROV-1): 12.8 µM (inactive) | GI50 (LOX IMVI): 0.817 µM (active) | GI50 (MDA-MB-231): 15.8 µM (inactive) | GI50 (Malme-3M): 16.4 µM (inactive) | GI50 (NCI-H23): 15 µM (inactive) | GI50 (NCI/ADR-RES): 11.9 µM (inactive) | GI50 (OVCAR-3): 16 µM (inactive) | GI50 (OVCAR-5): 12.1 µM (inactive) | GI50 (PC-3): 8.91 µM (inactive) | GI50 (SK-MEL-2): 13.6 µM (inactive) | GI50 (SNB-19): 13.3 µM (inactive) | GI50 (T47D): 6.37 µM (inactive) | GI50 (UACC-257): 13.5 µM (inactive) | GI50 (UACC-62): 0.509 µM (active) | GI50 (UO-31): 6.73 µM (inactive)

C[N+](C)(C)/C=N\c1cccc2nsnc12
GI50 (A498): > 100 µM (inactive) | GI50 (BT-549): > 100 µM (inactive) | GI50 (COLO 205): > 100 µM (inactive) | GI50 (DU-145): > 100 µM (inactive) | GI50 (HL-60): > 100 µM (inactive) | GI50 (IGROV-1): > 100 µM (inactive) | GI50 (LOX IMVI): > 100 µM (inactive) | GI50 (MDA-MB-231): > 100 µM (inactive) | GI50 (Malme-3M): > 100 µM (inactive) | GI50 (NCI-H23): > 100 µM (inactive) | GI50 (NCI/ADR-RES): > 100 µM (inactive) | GI50 (OVCAR-3): > 100 µM (inactive) | GI50 (OVCAR-5): > 100 µM (inactive) | GI50 (PC-3): > 100 µM (inactive) | GI50 (SK-MEL-2): > 100 µM (inactive) | GI50 (SNB-19): > 100 µM (inactive) | GI50 (T47D): > 100 µM (inactive) | GI50 (UACC-257): > 100 µM (inactive) | GI50 (UACC-62): > 100 µM (inactive) | GI50 (UO-31): > 100 µM (inactive)

C=CCSS/C=C/C[S+]([O-])CC=C (stereo not given) [AJOENE]
GI50 (A498): > 100 µM (inactive) | GI50 (BT-549): 25.6 µM (inactive) | GI50 (COLO 205): 24.7 µM (inactive) | GI50 (DU-145): 68.2 µM (inactive) | GI50 (HL-60): 5.05 µM (inactive) | GI50 (IGROV-1): 43.4 µM (inactive) | GI50 (LOX IMVI): 14.6 µM (inactive) | GI50 (MDA-MB-231): 25.2 µM (inactive) | GI50 (Malme-3M): 49.2 µM (inactive) | GI50 (NCI-H23): 46.6 µM (inactive) | GI50 (NCI/ADR-RES): 26.2 µM (inactive) | GI50 (OVCAR-3): 37.1 µM (inactive) | GI50 (OVCAR-5): 36.6 µM (inactive) | GI50 (PC-3): 39.1 µM (inactive) | GI50 (SK-MEL-2): > 52.2 µM (inactive) | GI50 (SNB-19): > 100 µM (inactive) | GI50 (T47D): > 56.1 µM (inactive) | GI50 (UACC-257): 50.9 µM (inactive) | GI50 (UACC-62): 36.3 µM (inactive) | GI50 (UO-31): 37.8 µM (inactive)

C[C@@H]1C[C@@H](O)[C@]2(O)O[C@@H]3C[C@@]4(C=O)[C@@H](CC[C@@H]5[C@@H]4CC[C@]4(C)[C@@H](C6=CC(=O)OC6)CC[C@]54O)C[C@H]3O[C@@H]2O1 [CALACTIN]
GI50 (A498): 0.0208 µM (active) | GI50 (BT-549): 0.0379 µM (active) | GI50 (COLO 205): 0.0221 µM (active) | GI50 (DU-145): 0.0171 µM (active) | GI50 (HL-60): 0.0129 µM (active) | GI50 (IGROV-1): 0.00962 µM (active) | GI50 (LOX IMVI): 0.0148 µM (active) | GI50 (MDA-MB-231): 0.0153 µM (active) | GI50 (Malme-3M): 0.0119 µM (active) | GI50 (NCI-H23): 0.00222 µM (active) | GI50 (NCI/ADR-RES): 0.0306 µM (active) | GI50 (OVCAR-3): 0.00169 µM (active) | GI50 (OVCAR-5): 0.0237 µM (active) | GI50 (PC-3): 0.0403 µM (active) | GI50 (SK-MEL-2): 0.0114 µM (active) | GI50 (SNB-19): 0.0219 µM (active) | GI50 (T47D): 0.0469 µM (active) | GI50 (UACC-257): 0.0213 µM (active) | GI50 (UACC-62): 0.016 µM (active) | GI50 (UO-31): 0.0171 µM (active)
